Counter-ions that a name gives are not always drawn.
Assay: Solubility
Assay type: physicochemical

| solubility (in benzene, aliphatic esters, ethyl ether) | solubility (in butanol, acetone) | solubility (in methanol, ethanol, chloroform) | solubility (in petroleum ether) | SMILES | solubility (in chloroform, acetone, benzol and non-polar solvents) | solubility (in methanol, aqueous alcohols) | solubility in water | solubility (in lower aliphatic alcohols, halogenated hydrocarbon (chloroform), ketones (acetone, methylethylketone)) |
| --- | --- | --- | --- | --- | --- | --- | --- | --- |
| – | – | – | – | COc1cccc2c1C(=O)c1c(O)c3c(c(O)c1C2=O)C[C@@](O)(C(C)=O)C[C@@H]3O[C@H]1C[C@H](N)[C@H](O)[C@H](C)O1 [F.I. 1762 hydrochloride] | insoluble | soluble | soluble | – |
| – | – | – | – | COc1cccc2c1C(=O)c1c(O)c3c(c(O)c1C2=O)C[C@@](O)(C(C)=O)C[C@@H]3O[C@H]1C[C@H](N)[C@H](O)[C@H](C)O1 [F.I. 1762 picrate] | – | – | – | soluble |
| scarcely soluble | less soluble | soluble | insoluble | COc1cccc2c1C(=O)c1c(O)c3c(c(O)c1C2=O)C[C@@](O)(C(C)=O)C[C@@H]3O [Daunomycinone, daunomycinone] | – | – | insoluble | – |

— patent publication US4012284A (Societa' Farmaceutici Italia, S.p.A., priority 1962, dated 1977)
